# Test results reported in US9527847B2, “Treatment of lupus, fibrotic conditions, and inflammatory myopathies and other disorders using PI3 kinase inhibitors” (INFINITY PHARMACEUTICALS, INC., priority 2012, dated 2016).
# Entries after “also recorded” stand apart in the source; their conditions may differ.
# Key:
# [1] = tested on: female C.B-17 SCID mice injected with CD45RBhigh cells; test: CD4+ Inflammatory Bowel Disease (IBD) model in SCID mice; format: in vivo, mouse
# Method: In this murine model, female C.B-17 SCID mice are injected intraperitoneally (IP) with CD45RB^high cells, a subset of CD4^+ T cells obtained from normal BALB/c mice, to induce spontaneous chronic inflammation in the large intestine. Gross and histopathologic changes resulting from this treatment resemble those occurring in Crohn's disease and ulcerative colitis in humans.
# On study day 0, Balb/C mice were terminated, and spleens were obtained for CD45RB^high cell isolation per the SCID IBD cell separation protocol. SCID mice were weighed and received intraperitoneal (IP) injections of the sorted cells (approx. 4×10^6 cells/ml, 100 μl/mouse injections). On study day 21, mice were weighed and randomized by body weight loss into treatment groups, and daily (QD), oral (PO) dosing was initiated. Dosing continued through study day 41, and mice were terminated on day 42.
# For each animal, the entire colon (proximal and distal) was trimmed into 8 equally spaced pieces for processing and embedding. Sections were stained with hemotoxylin and eosin (H&E). For each H&E stained section, submucosal edema was quantitated by measuring the distance from the muscularis mucosa to the internal border of the outer muscle layer in a non tangential area thought to most represent the severity of this change. Mucosal thickness was also measured in a non-tangential area of the section that best represented the overall mucosal thickness. This parameter is indicative of gland elongation and mucosal hyperplasia.
# Parameters that were scored using percent involvement included: (1) Colon glandular epithelial loss—this includes crypt epithelial as well as remaining gland epithelial loss; and (2) Colon Erosion—this reflects loss of surface epithelium and generally is associated with mucosal hemorrhage (reflective of the bleeding seen clinically and at necropsy).
# The 4 important scored parameters (inflammation, glandular epithelial loss, erosion, hyperplasia) were ultimately summed to arrive at a sum of histopathology scores, which indicates the overall damage and would have a maximum score of 20.
# Inflammatory cell infiltrates in the colonic mucosa were evaluated for approximate % of neutrophils in the total infiltrate using the criteria below.
# This value was then multiplied by the inflammation score in an attempt to semiquantify relative PMN infiltration across sections and animals.
# [2] = tested on: Human B-cell proliferation; test: Human B-cell proliferation; format: cell-based
# [3] = tested on: TLR9 (CPG-A induced cytokines); test: CPG-A induced cytokine production in PBMCs; format: cell-based, human
# Method: Human PBMCs were stimulated with CPG-A. CPG-A selectively activates PDCs, inducing IFN-α production via TLR9. IFN-α is a PDC cell selective readout. Primary human PBMCs from two normal human donors were used as a source of PDC cells. 200 K cells per well were used. […] Then the cells were treated with the specified concentration of CPG-A for 16 hours. RPMI-5% serum was employed.
# These experiments were conducted using PBMCs.
# [4] = tested on: Human T-cell proliferation; test: Human T-cell proliferation; format: cell-based
smiles,measurement,setting,value
C[C@H](Nc1ncnc2[nH]cnc12)c1cc2cccc(Cl)c2c(=O)n1-c1ccccc1 [Compound 292],Colon hyperplasia reduction,"[1]; 1 mg/kg PO QD, total colon",32%
same,Mucosal thickness reduction,"[1]; 1 mg/kg PO QD, total colon",31%
same,Colon weight reduction toward normal,"[1]; 1 mg/kg PO QD, vs vehicle",34%
same,Colon inflammation reduction,"[1]; 3 mg/kg PO QD, distal colon",42%
same,Gland loss reduction,"[1]; 3 mg/kg PO QD, distal colon",52%
same,Hyperplasia reduction,"[1]; 3 mg/kg PO QD, distal colon",61%
same,Mucosal thickness reduction,"[1]; 3 mg/kg PO QD, distal colon",64%
same,Neutrophil score reduction,"[1]; 3 mg/kg PO QD, distal colon",66%
same,PMN percent reduction,"[1]; 3 mg/kg PO QD, distal colon",56%
same,Summed histopathology score reduction,"[1]; 3 mg/kg PO QD, distal colon",52%
same,Colon inflammation reduction,"[1]; 3 mg/kg PO QD, proximal colon",19%
same,Gland loss reduction,"[1]; 3 mg/kg PO QD, proximal colon",24%
same,Hyperplasia reduction,"[1]; 3 mg/kg PO QD, proximal colon",37%
same,Mucosal thickness reduction,"[1]; 3 mg/kg PO QD, proximal colon",36%
same,Neutrophils score reduction,"[1]; 3 mg/kg PO QD, proximal colon",43%
same,PMN percent reduction,"[1]; 3 mg/kg PO QD, proximal colon",39%
same,Summed histopathology score reduction,"[1]; 3 mg/kg PO QD, proximal colon",28%
same,Colon hyperplasia reduction,"[1]; 3 mg/kg PO QD, total colon",49%
same,Colon inflammation reduction,"[1]; 3 mg/kg PO QD, total colon",30%
same,Gland loss reduction,"[1]; 3 mg/kg PO QD, total colon",38%
same,Mucosal thickness reduction,"[1]; 3 mg/kg PO QD, total colon",51%
same,Neutrophil score reduction,"[1]; 3 mg/kg PO QD, total colon",54%
same,PMN percent reduction,"[1]; 3 mg/kg PO QD, total colon",47%
same,Summed histopathology score reduction,"[1]; 3 mg/kg PO QD, total colon",40%
same,Colon weight reduction toward normal,"[1]; 3 mg/kg PO QD, vs vehicle",50%
same,Colon inflammation reduction,"[1]; 10 mg/kg PO QD, distal colon",28%
same,Colon mucosal thickness reduction,"[1]; 10 mg/kg PO QD, distal colon",46%
same,Gland loss reduction,"[1]; 10 mg/kg PO QD, distal colon",39%
same,Hyperplasia reduction,"[1]; 10 mg/kg PO QD, distal colon",46%
same,Summed histopathology score reduction,"[1]; 10 mg/kg PO QD, distal colon",38%
same,Colon edema reduction,"[1]; 10 mg/kg PO QD, proximal colon",68%
same,Colon inflammation reduction,"[1]; 10 mg/kg PO QD, proximal colon",17%
same,Erosion reduction,"[1]; 10 mg/kg PO QD, proximal colon",94%
same,Gland loss reduction,"[1]; 10 mg/kg PO QD, proximal colon",26%
same,Hyperplasia reduction,"[1]; 10 mg/kg PO QD, proximal colon",45%
same,Mucosal thickness reduction,"[1]; 10 mg/kg PO QD, proximal colon",43%
same,Neutrophil score reduction,"[1]; 10 mg/kg PO QD, proximal colon",45%
same,PMN percent reduction,"[1]; 10 mg/kg PO QD, proximal colon",37%
same,Summed histopathology score reduction,"[1]; 10 mg/kg PO QD, proximal colon",31%
same,Absolute body weight,"[1]; 10 mg/kg PO QD, significant days 27-31, 35, 39, vs vehicle",significantly (by ANOVA) increased
same,Colon edema reduction,"[1]; 10 mg/kg PO QD, total colon",60%
same,Colon hyperplasia reduction,"[1]; 10 mg/kg PO QD, total colon",46%
same,Colon inflammation reduction,"[1]; 10 mg/kg PO QD, total colon",24%
same,Gland loss reduction,"[1]; 10 mg/kg PO QD, total colon",33%
same,Mucosal thickness reduction,"[1]; 10 mg/kg PO QD, total colon",45%
same,Neutrophil score reduction,"[1]; 10 mg/kg PO QD, total colon",44%
same,PMN percent reduction,"[1]; 10 mg/kg PO QD, total colon",37%
same,Summed histopathology score reduction,"[1]; 10 mg/kg PO QD, total colon",35%
same,Colon weight reduction toward normal,"[1]; 10 mg/kg PO QD, vs vehicle",51%
same,EC50,[2],0.5 nM
same,CPG-A induced IFN-α production,[3],potently inhibited; also recorded: blocked
same,CPG-A induced IL-6 production,[3],Inhibited
same,CPG-A induced IL-8 production,[3],Inhibited
same,CPG-A induced TNF-α production,[3],Inhibited
same,EC50,[4],9.5 nM
